Patent US10159254B2, “Weed control methods” (Syngenta Participations AG, priority 2013, dated 2018)

Assays:
[1] = system: Velvetleaf (Abutilon theophrasti); test: Greenhouse weed control: HPPD inhibitors with or without Sequestrene 138Fe, velvetleaf; format: in vivo; conditions: percent velvetleaf control 19 DAT
Experimental: Effect of Tank Mix Applications of HPPD Inhibitors and Sequestrene® 138Fe on Velvetleaf Control. Percent Control Assessed 19 DAT
(§1) A greenhouse experiment is conducted to determine the effect of chelated iron on weed control in the greenhouse. Velvetleaf (Abutilon theophrasti) and common waterhemp (Amaranthus rudis) plants are grown in 4×4-inch pots filled with a greenhouse potting mix. When the plants reached the 2 to 3 inch height (2 to 3 leaf stage), they are sprayed with a reduced rate of an HPPD inhibitor alone or in a tank mix combination with Sequestrene 138Fe at 140 g/ha (equivalent to 8.4 g iron/hectare) or 280 g/ha (equivalent to 16.8 g iron/hectare). […] Observations on percent control are recorded 12, 19, and 25 days after treatment.

[2] = system: common waterhemp (Amaranthus rudis); test: Greenhouse weed control: HPPD inhibitors with or without Sequestrene 138Fe, common waterhemp; format: in vivo; conditions: common waterhemp control 17 DAT
Experimental: as §1
Effect of Tank Mix Applications of Various HPPD Inhibitors and Sequestrene 138Fe on Common Waterhemp Control. Injury Assessed 17 DAT
An experiment is performed to look at the effect of applying iron chelates on control of Common Waterhemp using HPPD-inhibiting herbicides. Experiment design is analogous to that outlined in Experiment 3 above.

SYHT0H2 soybeans [3] = test: Greenhouse: Sequestrene 138Fe rate series, percent injury from HPPD-inhibitors at 7 DAT; format: in vivo, soybean; conditions: mesotrione 420, bicyclopyrone 200, tembotrione 368, topramezone 72 g/ha
Experimental: Effect of Sequestrene® 138Fe on Percent Injury from Various HPPD-inhibitors on SYHT0H2 Soybeans. Injury Assessed at Seven Days after Treatment (7 DAT)
SYHT0H2 soybeans are grown in 4×4-inch pots filled with a greenhouse potting mix. When the plants reach the V2-V3 growth stage, they are treated with an HPPD inhibitor applied alone or in a tank mixture with Sequestrene 138Fe at various rates ranging from 140 g product/ha (equivalent to 8.4 g iron/ha) to 2240 g product/ha (equivalent to 134 g iron/ha).

[4] = system: HPPD-tolerant soybean event SYHT04R; test: Glasshouse: post-emergence HPPD herbicide damage with or without Sequestrene 138Fe, 7 DAA; format: in vivo; conditions: isoxaflutole, tembotrione
Experimental: (§2) Safening of Various HPPD-inhibiting Herbicides in HPPD-tolerant Soybean Events SYHT04R and SYHT0H2
(§3) An experiment is performed to determine whether the addition of chelating iron to the spray formulation can mitigate foliar bleaching injury from the HPPD herbicides mesotrione, bicyclopyrone, tembotrione, isoxaflutole, topramezone and pyrasulfatole when applied post-emergence to the HPPD-tolerant soybean events SYHT04R and SYHT0H2.
(§4) Soybean plants are grown in a glasshouse (24° C. day, 18° C. night; 65% relative humidity; 16 hour photoperiod). Two replicates are utilised in respect of SYHT0H2 (growth stage V1-V3) and three replicates are utilised in respect of SYHT04R (growth stage V1 to V3). Spray applications are applied post-emergence at […]. Herbicide damage was assessed 7 DAA (Days After Application).

[5] = system: HPPD-tolerant soybean event SYHT0H2; test: as above; format: in vivo; conditions: isoxaflutole, tembotrione
Experimental: as §2, §3, §4

SYHT0H2 soybeans [6] = test: Greenhouse: water-soluble iron compounds safening mesotrione, maximum injury; conditions: in vivo
Experimental: An experiment is conducted to look at the safening effect of a variety of water-soluble iron-containing compounds. SYHT0H2 soybean plants are grown in small pots filled with a greenhouse potting mix. […] In all cases, mesotrione was applied at 420 g ai/ha and all treatments contained liquid ammonium sulphate at 2.5% v/v and NIS at 0.25% v/v. The application rates of iron-containing compounds indicated are iron equivalent rates. […] Percent injury levels were assessed 6, 9, and 16 days after treatment. Data presented are maximum injury occurring from any of the treatments at any time during the experiment.

SYHT0H2 soybeans [7] = test: Greenhouse: tank-mix and sequential Sequestrene 138Fe, HPPD-inhibitor maximum injury; format: in vivo, soybean
Experimental: Effect of Tank-mix and Sequential Application of Sequestrene® 138 on Mesotrione (Applied as Callisto®)—Maximum Injury in SYHT0H2 Soybeans
An experiment is conducted in the greenhouse to determine the effect of chelated iron (Sequestrene 138Fe containing 6% iron) on HPPD-inhibitor injury to SYHT0H2 soybeans. Soybeans are grown in pots filled with a greenhouse potting mix. When the plants reach the V2-V3 stage, they are sprayed with an HPPD-inhibitor herbicide applied alone (Treatment 1), or in tank mixture with Sequestrene 138Fe (Treatment 2), or sequentially with Sequestrene 138Fe applied 1 day before the HPPD inhibitor (Treatment 3). Sequestrene 138Fe is applied at 2240 g/ha (equivalent to 134 g iron/ha). All treatments are applied with liquid ammonium sulfate @ 2.5% v/v and a non-ionic surfactant (NIS) @ 0.25% v/v in 150 L/ha water. Observations on percent injury are recorded 5, 11, or 22 days after treatment. Data presented are maximum injury observed during the trial.

SYHT04R soybeans = test: Greenhouse: Sequestrene 138Fe safening of HPPD-inhibitors, injury 6 days after treatment; format: in vivo, soybean; conditions: 6 days after treatment (maximum injury), mesotrione 420, bicyclopyrone 200, isoxaflutole 280 g/ha
Experimental: Effect of Sequestrene® 138Fe on Various HPPD-inhibitors in SYHT04R Soybeans. Maximum Injury Assessed 6 Days after Treatment
A greenhouse experiment is conducted to determine if Sequestrene® 138Fe was effective in safening various other HPPD herbicide-tolerant soybean events, such as SYHT04R.
SYHT04R soybean plants are grown in 4×4-inch pots filled with a greenhouse potting mix. When the plants reached the V2-V3 growth stage, they are sprayed with an HPPD inhibitor alone or in combination with Sequestrene® 138Fe at 1120 g/ha (equivalent to 67.2 g iron/ha). […] Observations on percent injury are recorded at 6 and 20 days after treatment. Data presented is from the 6 days after treatment rating representing the maximum injury observed during the experiment.

SYHT04R soybean = test: Greenhouse: chelated Fe versus chelated Mn, bicyclopyrone maximum injury; format: in vivo; conditions: additive none, maximum injury of 5 and 9 days after treatment
Experimental: Effect of Chelated Fe and Chelated Mn on Safening SYHT04R Soybean from Bicyclopyrone Injury
A greenhouse experiment is conducted to determine if chelating agents containing nutrient elements other than Fe were also effective in safening HPPD herbicide-tolerant soybeans.
SYHT04R soybean plants are grown in 4×4-inch pots filled with a greenhouse potting mix. When the plants reached the V2-V3 growth stage, they are sprayed with an HPPD inhibitor alone or in combination with Sequestrene 138Fe or a solution containing 6% EDTA-chelated Mn. […] Observations on percent injury were recorded 5, and 9 days after treatment. Data presented are maximum injury observed during the experiment.

[8] = Sequestrene 138Fe 0 g/ha, g ai/ha: mesotrione 26, isoxaflutole 26, bicyclopyrone 50, tembotrione 46, pyrasulfatole 22, topramezone 18
[9] = Sequestrene 138Fe 140 g/ha tank mix, mesotrione 26, isoxaflutole 26 g ai/ha
[10] = Sequestrene 138Fe 140 g/ha tank mix
[11] = Sequestrene 138Fe 280 g/ha tank mix
[12] = Sequestrene 138Fe 560 g/ha tank mix
[13] = Sequestrene 138Fe 1120 g/ha tank mix
[14] = Sequestrene 138Fe 2240 g/ha tank mix
[15] = Sequestrene 138Fe 280 g/ha tank mix, g ai/ha: bicyclopyrone 50, tembotrione 46, pyrasulfatole 22, topramezone 18
[16] = Sequestrene 138Fe 1000 g/ha, g ai/ha: mesotrione 200, bicyclopyrone, pyrasulfatole 100, topramazone 50
[17] = Sequestrene 138Fe 1000 g/ha, g ai/ha: mesotrione 800, bicyclopyrone, pyrasulfatole 400, topramazone 200
[18] = no Sequestrene 138Fe, g ai/ha: mesotrione 200, bicyclopyrone, pyrasulfatole 100, topramazone 50
[19] = no Sequestrene 138Fe, g ai/ha: mesotrione 800, bicyclopyrone, pyrasulfatole 400, topramazone 200

Molecule | % Injury [1, 8] [%] | % Injury [2, 8] [%] | % Injury [1, 15] [%] | % Injury [2, 15] [%] | Herbicide damage SYHT04R [4, 16] | Herbicide damage SYHT04R [4, 17] | Herbicide damage SYHT04R [4, 18] | Herbicide damage SYHT04R [4, 19] | Herbicide damage SYHT0H2 [5, 16] | Herbicide damage SYHT0H2 [5, 17] | Herbicide damage SYHT0H2 [5, 18] | Herbicide damage SYHT0H2 [5, 19] | further results
CS(=O)(=O)c1cc(C(F)(F)F)ccc1C(=O)c1cnoc1C1CC1 [Isoxaflutole, isoxaflutole] | 78 | 87 |  |  |  |  |  |  |  |  |  |  | % Injury [1, 9]: 82%; % Injury [2, 9]: 88%
Cc1c(C(=O)c2cnn(C)c2O)ccc(S(C)(=O)=O)c1C1=NOCC1 [Topramezone, topramezone] | 96 | 100 | 93 | 99 | 2 | 3 | 5 | 17 | 5 | 0 | 8 | 23 | % Injury (SYHT0H2 soybeans [3]; Sequestrene 138Fe 0 g/ha): 8%; % Injury (SYHT0H2 soybeans [3]; [10]): 0%; % Injury (SYHT0H2 soybeans [3]; [11]): 0%; % Injury (SYHT0H2 soybeans [3]; [12]): 0%; % Injury (SYHT0H2 soybeans [3]; [13]): 0%; % Injury (SYHT0H2 soybeans [3]; [14]): 0%
O=S(=O)([O-])[O-].[Fe+2] [Ferrous Sulfate (Fe2SO4), iron (II) sulphate (ferrous sulphate)] |  |  |  |  |  |  |  |  |  |  |  |  | safening SYHT0H2 soybeans from mesotrione injury (SYHT0H2 soybeans [6]): effective
iron DTPA [Sequestrene 330-Fe] |  |  |  |  |  |  |  |  |  |  |  |  | safening SYHT0H2 soybeans from mesotrione injury (SYHT0H2 soybeans [6]): effective
bicyclopyrone | 100 | 90 | 100 | 96 | 5 | 30 | 15 | 42 | 3 | 25 | 13 | 40 | % Maximum Injury (SYHT0H2 soybeans [7]; Sequestrene 138Fe 2240 g/ha applied 1 day before herbicide (Treatment 3, sequential), mesotrione 420, bicyclopyrone 200, tembotrione 368 g ai/ha): 12%; % Maximum Injury (SYHT0H2 soybeans [7]; herbicide alone (Treatment 1), mesotrione 420, bicyclopyrone 200, tembotrione 368 g ai/ha, maximum of 5, 11, 22 days after treatment): 25%; % Maximum Injury (SYHT0H2 soybeans [7]; tank mix with Sequestrene 138Fe 2240 g/ha (Treatment 2, simultaneous), mesotrione 420, bicyclopyrone 200, tembotrione 368 g ai/ha): 3%; % Injury (SYHT0H2 soybeans [3]; Sequestrene 138Fe 0 g/ha): 23%; % Injury (SYHT0H2 soybeans [3]; [10]): 12%; % Injury (SYHT0H2 soybeans [3]; [11]): 10%; % Injury (SYHT0H2 soybeans [3]; [12]): 1%; % Injury (SYHT0H2 soybeans [3]; [13]): 0%; % Injury (SYHT0H2 soybeans [3]; [14]): 0%; % Injury (SYHT04R soybeans; Sequestrene 138Fe 0 g/ha): 29%; % Injury (SYHT04R soybeans; Sequestrene 138Fe 1120 g/ha): 7%; % Injury (SYHT04R soybean): 29%
CS(=O)(=O)c1ccc(C(=O)C2C(=O)CCCC2=O)c(Cl)c1COCC(F)(F)F [Tembotrione, tembotrione] | 98 | 99 | 99 | 99 |  |  |  |  |  |  |  |  | % Maximum Injury (SYHT0H2 soybeans [7]; in vivo): 31%
Cc1nn(C)c(O)c1C(=O)c1ccc(C(F)(F)F)cc1S(C)(=O)=O [Pyrasulfatole, pyrasulfotole] | 85 | 98 | 80 | 77 | 0 | 2 | 4 | 12 | 10 | 18 | 10 | 4 | 
